Results on seven molecules are retold here after patent US20260070887A1 (Shenzhen Zhongge Biological Technology Co., Ltd., priority 2022, published 2026).

As usually defined, the IC50 is the concentration needed to halve the response being measured. Low readings indicate inhibition by little substance, high ones a need for much substance. By AUC is commonly meant concentration integrated over time. The Cmax is the peak of the concentration-time curve.

Where two headings read alike, the source gives them in different places. A value given as a limit tells only on which side of the number the result lay.

One series has as its target KIF18A (Homo sapiens (Human), UniProt Q8NI77). Put plainly: KIF18A ATPase activity under tubulin stimulation (ADP-Glo assay). The conditions noted are these: KIF18A 30 nM, ATP 150 μM, pig microtubules. In kind it is biochemical. On the technique in general: In ADP-Glo the light output rises with the ADP produced.
The next series in a line: PK study in ICR mice. Particulars: plasma, route and dose not given. In kind it is in vivo, mouse. An outline of the steps:
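Fasted ICR mice (3/group) dosed intravenously or by oral gavage; plasma sampled up to 24 h. Plasma levels measured by LC-MS/MS after protein precipitation. T½, AUC0-t, CL, Vss and F derived by noncompartmental analysis.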

Another series concerns HCT116 cells. Briefly: HCT116 cell anti-proliferation assay. In kind it is cell-based. Particulars: 6 days, Cell Titer-Glo. As to the method: HCT116 (ATCC, CCL-247) cells were cultured in McCoy's 5a complete medium (Gibco, 12330-031) containing 10% fetal bovine serum (Gibco, 10099-141C), 100 U penicillin and 100 μg/mL streptomycin (Gibco, 15140-122). The Promega kit Cell Titer-Glo (Promega: G7572) was used in this method for test.
HCT116 cells were cultured in T75 cell flasks (Corning, 430641) and the cells were placed in a 37° C., 5% CO2 incubator. Cells were passaged when reaching a cell density of 70%-80%, approximately twice per week. To perform the experiment, the test compounds were dissolved in DMSO to prepare a 10 mM stock solution, and the test compounds were added to the 384-well cell test plate (Corning, 3765) at the predetermined concentration (19.5 nM-[…]) using ECHO. […] cells were digested and 150 cells (60 μL medium) were seeded per well in the test plate. The 384-well plate was then centrifuged at 500 rpm for 1 minute, and then placed in a 37° C., 5% CO2 incubator for 6 days of cultivation. Six days later, the cell culture plate was equilibrated for 10 minutes at room temperature, 25 μL of Cell Titer-Glo was added to each well, and the mixture was shaken and mixed well and let stand for 5 minutes. The luminescence values for samples in various wells were read using a microplate reader in Luminescence mode.
The percentage of inhibition of cell proliferation by the test compound at each concentration was calculated by comparing with the values of the control group (0.2% DMSO). The IC50 values of the compounds were obtained by concentration-inhibition rate nonlinear regression analysis of the test compounds using GraphPad Prism 9.
A general note: In ATP-based viability assays light output follows the ATP content of the culture.

The mark [1] stands for this setting: both sexes, mouse, read-out: AUC.
Where [2] appears, read: both sexes, mouse, read-out: Cmax.

Chain of KIF18A (Q8NI77 whole entry): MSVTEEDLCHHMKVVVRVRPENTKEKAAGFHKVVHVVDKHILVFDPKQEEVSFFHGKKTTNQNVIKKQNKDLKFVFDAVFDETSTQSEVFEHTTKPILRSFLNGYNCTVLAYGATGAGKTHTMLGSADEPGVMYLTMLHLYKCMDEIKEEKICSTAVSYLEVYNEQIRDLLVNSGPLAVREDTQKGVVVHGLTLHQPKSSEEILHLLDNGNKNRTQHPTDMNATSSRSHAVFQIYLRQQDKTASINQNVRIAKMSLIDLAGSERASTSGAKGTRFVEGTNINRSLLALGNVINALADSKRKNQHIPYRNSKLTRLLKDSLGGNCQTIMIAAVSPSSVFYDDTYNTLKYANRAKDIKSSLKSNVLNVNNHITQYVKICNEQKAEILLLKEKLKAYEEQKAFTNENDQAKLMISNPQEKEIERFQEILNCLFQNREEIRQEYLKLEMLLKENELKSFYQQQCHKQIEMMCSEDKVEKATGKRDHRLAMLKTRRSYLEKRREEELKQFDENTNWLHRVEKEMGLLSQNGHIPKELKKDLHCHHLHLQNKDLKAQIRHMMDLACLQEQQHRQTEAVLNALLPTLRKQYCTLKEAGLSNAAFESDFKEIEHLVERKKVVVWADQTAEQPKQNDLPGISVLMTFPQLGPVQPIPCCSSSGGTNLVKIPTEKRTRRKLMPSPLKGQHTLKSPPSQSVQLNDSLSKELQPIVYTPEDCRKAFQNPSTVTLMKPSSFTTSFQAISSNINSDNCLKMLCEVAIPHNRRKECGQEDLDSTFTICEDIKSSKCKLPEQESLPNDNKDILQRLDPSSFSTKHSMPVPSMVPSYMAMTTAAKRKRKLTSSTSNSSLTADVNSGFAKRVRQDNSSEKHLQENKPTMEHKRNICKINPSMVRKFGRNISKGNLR
Chain of KIF18A (P02550 whole entry partner): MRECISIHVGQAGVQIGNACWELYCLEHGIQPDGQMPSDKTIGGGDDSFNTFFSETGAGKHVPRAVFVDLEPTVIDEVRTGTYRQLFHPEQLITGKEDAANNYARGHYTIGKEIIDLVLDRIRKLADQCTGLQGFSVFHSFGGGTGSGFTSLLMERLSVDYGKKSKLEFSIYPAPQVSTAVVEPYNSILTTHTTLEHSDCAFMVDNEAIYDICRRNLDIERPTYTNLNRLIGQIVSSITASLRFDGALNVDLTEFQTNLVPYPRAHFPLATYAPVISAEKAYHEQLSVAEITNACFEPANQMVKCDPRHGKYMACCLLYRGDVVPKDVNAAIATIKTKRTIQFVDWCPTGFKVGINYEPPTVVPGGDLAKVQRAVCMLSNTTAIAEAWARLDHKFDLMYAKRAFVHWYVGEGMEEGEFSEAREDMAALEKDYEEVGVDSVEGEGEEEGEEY
Chain of KIF18A (P02554 whole entry partner): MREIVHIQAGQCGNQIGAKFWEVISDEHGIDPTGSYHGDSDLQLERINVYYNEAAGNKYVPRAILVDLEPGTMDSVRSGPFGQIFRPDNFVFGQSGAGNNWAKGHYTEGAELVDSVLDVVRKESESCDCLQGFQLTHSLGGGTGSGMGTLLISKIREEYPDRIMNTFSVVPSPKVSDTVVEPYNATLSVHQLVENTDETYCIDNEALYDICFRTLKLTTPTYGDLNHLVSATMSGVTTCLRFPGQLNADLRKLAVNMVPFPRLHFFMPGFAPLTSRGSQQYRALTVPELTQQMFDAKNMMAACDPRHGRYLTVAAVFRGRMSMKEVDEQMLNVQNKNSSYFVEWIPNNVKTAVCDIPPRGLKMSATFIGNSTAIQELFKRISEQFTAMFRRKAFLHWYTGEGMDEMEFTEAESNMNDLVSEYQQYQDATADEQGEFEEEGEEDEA

With `CC1(C)Cn2c(cc3c(NC(=O)c4ccc(NS(=O)(=O)CCO)cc4N4CCC(=C(F)F)CC4)cccc32)CO1` [Example 370, 2-(4-(difluoromethylene)piperidin-1-yl)-N-(3,3-dimethyl-3,4-dihydro-1H-[1,4]oxazino[4,3-a]indol-9-yl)-4-((2-hydroxyethyl)sulfonamido)benzamide], the IC50 against KIF18A is 0.05 to 0.5 µM; in the series on HCT116 cells (Homo sapiens, HCT-116, 144 h) it was > 10 µM. The AUC in the series “PK study in ICR mice” (setting [1]) was 52400 ng·h/mL. In addition, the Cmax in “PK study in ICR mice” (setting [2]) came to 3580 ng/mL.

For the molecule `CC1(C)Cn2c(cc3c(NC(=O)c4ccc(NS(=O)(=O)CCO)cc4N4CCC5(CC4)CC5)cccc32)CO1` [Example 371, N-(3,3-dimethyl-3,4-dihydro-1H-[1,4]oxazino[4,3-a]indol-9-yl)-4-(2-hydroxyethylsulfonamido)-2-(6-azaspiro[2.5]octan-6-yl)benzamide], the IC50 was ≤ 0.05 µM against KIF18A and > 10 µM in the series with HCT116 cells (Homo sapiens, HCT-116, 144 h). Further, the AUC in “PK study in ICR mice” (setting [1]) came out at 51200 ng·h/mL. In addition, in the series “PK study in ICR mice” (setting [2]), the Cmax came to 3750 ng/mL.

For `O=C(Nc1cccc2c1cc1n2CCC(F)(F)C1)c1ccc(NS(=O)(=O)CCO)cc1N1CCC(=C(F)F)CC1` [Example 374, N-(8,8-difluoro-6,7,8,9-tetrahydropyridino[1,2-a]indol-1-yl)-2-(4-(difluoromethylene)piperidin-1-yl)-4-((2-hydroxyethyl)sulfonamido)benzamide], the IC50 on KIF18A is ≤ 0.05 µM; with HCT116 cells (Homo sapiens, HCT-116, 144 h), 8.7 µM. Also, the AUC in the series “PK study in ICR mice” (setting [1]) came to 26500 ng·h/mL. The maximum concentration (Cmax) in “PK study in ICR mice” (setting [2]) stood at 3700 ng/mL.

`N#Cc1ccc(NC(=O)c2ccc(NS(=O)(=O)CCO)cc2N2CCC(=C(F)F)CC2)c2cc3n(c12)CCC(F)(F)C3` [Example 378]: at KIF18A, the IC50 is 0.05 to 0.5 µM. Further, in “PK study in ICR mice”, the AUC worked out at 48150 ng·h/mL and the Cmax came out at 5253 ng/mL. In the series with HCT116 cells, the IC50 was > 10 µM.

On to `N#Cc1ccc(NC(=O)c2ccc(NS(=O)(=O)CCO)cc2N2CCC3(CC2)CC3)c2cc3n(c12)CCC(F)(F)C3` [Example 379], for which the IC50 was ≤ 0.05 µM against KIF18A and 9.8 µM with HCT116 cells. This molecule also displayed an AUC in “PK study in ICR mice” of 36456 ng·h/mL. The molecule also yielded a Cmax in “PK study in ICR mice” of 4043 ng/mL.

On to `COc1ccc(NC(=O)c2ccc(NS(=O)(=O)CCO)cc2N2CCC3(CC2)CC3)c2cc3n(c12)CC(C)(C)OC3` [Example 455, 4-((2-hydroxyethyl)sulfonamido)-N-(6-methoxy-3,3-dimethyl-3,4-dihydro-1H-[1,4]oxazinyl[4,3-a]indol-9-yl)-2-(6-azaspiro[2.5]oct-6-yl)benzamide], for which the IC50 was 0.05 to 0.5 µM against KIF18A and > 10 µM in the series with HCT116 cells (Homo sapiens, HCT-116, 144 h). In “PK study in ICR mice” (setting [1]), the AUC is 71000 ng·h/mL. Also, the Cmax in “PK study in ICR mice” (setting [2]) is 5590 ng/mL.

`COc1ccc(NC(=O)c2ccc(NS(=O)(=O)CCO)cc2N2CCC(=C(F)F)CC2)c2cc3n(c12)CC(C)(C)OC3` [Example 465, 2-(4-(difluoromethylene)piperidin-1-yl)-4-((2-hydroxyethyl)sulfonamido)-N-(6-methoxy-3,3-dimethyl-3,4-dihydro-1H-[1,4]oxazinyl[4,3-a]indol-9-yl)benzamide] came in with an IC50 on KIF18A of 0.05 to 0.5 µM. Also, in the series “PK study in ICR mice”, the AUC turned out to be 72111 ng·h/mL and the Cmax was determined as 5780 ng/mL. Also, in the series on HCT116 cells, the IC50 is > 10 µM.
